Assay [1] deals with T1, mutEGFR (D770_N771insSVD) (Homo sapiens, UniProt P00533, DUP768-770).
T1 construct: GST-EGFR #3 (SVD between D770 and N771); made in house; host or cells: Sf9 insect cells (baculovirus)
Nature of the assay: Exon20-Mutant-EGFR(D770_N771insSVD) kinase assay (TR-FRET). Particulars: GST-EGFR ins SVD, 2 mM ATP, 15 min pre-incubation. In kind it is biochemical. The source says: Inhibitory activity of compounds of the present invention against an Epidermal Growth Factor Receptor (EGFR) with an insertion of the amino acids sequence SVD between D770 and N771 was quantified employing the TR-FRET based kinase activity assay as described in the following paragraphs.
A recombinant fusion protein of N-terminal Glutathion-S-Transferase (GST) and a fragment of human EGFR variant (amino acids R669 to A1210 with insertion of the amino acids sequence SVD between D770 and N771 (“EGFR ins SVD”), expressed in Sf9 insect cells and purified via affinity chromatography using Glutathion Sepharose as described above, was used as a kinase. As substrate for the kinase reaction the biotinylated peptide biotin-Ahx-AEEEEYFELVAKKK (SEQ ID NO: 6) (C-terminus in amide form) was used which can be purchased e.g. form the company Biosynthan GmbH (Berlin-Buch, Germany).
For the assay 50 nl of a 100-fold concentrated solution of the test compound in DMSO was pipetted into either a black low volume 384 well microtiter plate or a black 1536 well microtiter plate (both Greiner Bio-One, Frickenhausen, Germany), 2 μl of a solution of EGFR in aqueous assay buffer [50 mM Hepes pH 7.0, 10 mM MgCl2, 1 mM dithiothreitol, 0.5 mM EGTA, 0.3 mM activated sodium ortho-vanadate, 0.005% (w/v) bovine serum albumin, 0.005% (v/v) Tween-20] were added and the mixture was incubated for 15 min at 22° C. to allow pre binding of the test compounds to the enzyme before the start of the kinase reaction. Then the kinase reaction was started by the addition of 3 μL of a solution of adenosine tri phosphate (ATP, 3.33 mM=>final conc. in the 5 μL assay volume is 2 mM) and substrate (1.67 μM=>final conc. in the 5 μL assay volume is 1 μM) in assay buffer and the resulting mixture was incubated for a reaction time of 30 min at 22° C. The concentration of EGFR was adjusted depending of the activity of the enzyme lot and was chosen appropriate to have the assay in the linear range, typical concentration was 15 pg/μl. The reaction was stopped by the addition of 3 μl of a solution of HTRF detection reagents (83.3 nM streptavidine-XL665 [Cisbio Bioassays, Codolet, France] and 1.67 nM PT66-Tb-Cryptate, a terbium-cryptate labelled anti-phospho-tyrosine antibody from Cisbio Bioassays [instead of the PT66 Tb cryptate PT66 Eu Chelate from Perkin Elmer can also be used]) in an aqueous EDTA-solution (133.3 mM EDTA, 0.2% (w/v) bovine serum albumin in 50 mM HEPES pH 7.5).
The resulting mixture was incubated 1 h at 22° C. to allow the binding of the biotinylated phosphorylated peptide to the streptavidine-XL665 and the PT66-Tb-Cryptate. Subsequently the amount of phosphorylated substrate was evaluated by measurement of the resonance energy transfer from the PT66-Tb-Cryptate to the streptavidine-XL665. Therefore, the fluorescence emissions at 620 nm and 665 nm after excitation at 337 nm were measured in a HTRF reader, e.g. a Pherastar (BMG Labtechnologies, Offenburg, Germany) or a Viewlux (Perkin-Elmer). The ratio of the emissions at 665 nm and at […] was taken as the measure for the amount of phosphorylated substrate. The data were normalised (enzyme reaction without inhibitor=0% inhibition, all other assay components but no enzyme=100% inhibition).
Background: TR-FRET usually uses a lanthanide donor and a delayed reading to cut background.

The next assay has as its target Ba/F3-EGFR-WT cells (Homo sapiens, UniProt P00533). The assay can be described thus: Ba/F3 cell survival assay (Cell Titer-Glo), WT EGFR. In kind it is cell-based. The settings on record: 48 h, without IL-3, 10 ng/mL EGF; read-out: BA/F3 (wild type) IC50. As for the experimental part:
(§1) 293T cells from ATCC were transfected with pBABEpuro expression constructs for WT EGFR or EGFR-insSVD, or EGFR-insSVD T790M, and pCL-Eco packaging vector using Fugene-6 transfection reagent from Promega. Plates were incubated at 37° C. for 48 h. Retrovirus was harvested by filtering the media supernatant through a 0.45 μm filter.
(§2) Ba/F3 cells purchased from DSMZ were grown in RPMI+10% FBS+10 ng/mL IL-3 and infected with filtered retroviral supernatant at a 1:2 dilution. Polybrene was added to a concentration of 8 μg/mL, plates were spun for 90 min, and incubated for 16 h at 37° C. 2 μg/mL puromycin was added to the infected cells 24 h after infection and cells were continually grown in the presence of puromycin and 10 ng/mL IL-3. Following stably expressing Ba/F3 cell lines were generated: Ba/F3-EGFR-WT, Ba/F3-EGFR-insSVD, Ba/F3-EGFR-insSVD T790M, (Ba/F3—vector-control).
(§3) For cell survival assays, Ba/F3 cells were grown to a density of 1-2 million cells per mL, spun down and resuspended in media without IL-3, and replated at a concentration 200,000-500,000 cells per mL. The cells ectopically expressing WT EGFR, EGFR-insSVD, or EGFR-insSVD T790M were plated with 10 ng/mL Millipore Culture grade EGF. The cells ectopically expressing pBABEpuro empty vector were plated with 10 ng/mL IL-3.
(§4) 2 days later, cells were plated in 50 μL in a 384 well plate at a concentration of 4000 cells per well for cells assayed in the absence of IL-3 and 2000 cells per well for cells assayed in the presence of IL-3. 100 nL of compound was added to each well using a 100 nL pin head, and plates were incubated at 37° C. for 48 h.
(§5) Cell viability was measured by adding 20 μL of Cell Titer-Glo Luminescent Cell Viability Reagent diluted 1:3 in PBS. Plates were sealed with Perkin Elmer Top-Seal, inverted several times to mix, and immediately centrifuged at 1000 rpm for 2 min. Plates were incubated in low light conditions for 8-10 min and luminescence was measured.
(In ATP-based viability assays light output follows the ATP content of the culture.)

The target in assay [2] is Ba/F3-EGFR-E746_A750del T790M cells (Homo sapiens, UniProt P00533, DEL746-750/T790M, cells depend on it). Nature of the assay: Ba/F3 cell survival assay (Cell Titer-Glo), EGFR-E746_A750del T790M. Type of assay: cell-based. Particulars: 48 h, without IL-3, 10 ng/mL EGF; read-out: BA/F3 (E746_A750del T790M) IC50. The procedure: (§6) 293T cells from ATCC were transfected with pBABEpuro expression constructs for EGFR-L858R, EGFR-E746_A750del, EGFR-L858R T790M, or EGFR-E746_A750del T790M, and pCL-Eco packaging vector using Fugene-6 transfection reagent from Promega. Plates were incubated at 37° C. for 48 h. Retrovirus was harvested by filtering the media supernatant through a 0.45 μm filter.
Chain of Ba/F3-EGFR-E746_A750del T790M cells (P00533 with tags, fused parts or gaps DEL746-750/T790M): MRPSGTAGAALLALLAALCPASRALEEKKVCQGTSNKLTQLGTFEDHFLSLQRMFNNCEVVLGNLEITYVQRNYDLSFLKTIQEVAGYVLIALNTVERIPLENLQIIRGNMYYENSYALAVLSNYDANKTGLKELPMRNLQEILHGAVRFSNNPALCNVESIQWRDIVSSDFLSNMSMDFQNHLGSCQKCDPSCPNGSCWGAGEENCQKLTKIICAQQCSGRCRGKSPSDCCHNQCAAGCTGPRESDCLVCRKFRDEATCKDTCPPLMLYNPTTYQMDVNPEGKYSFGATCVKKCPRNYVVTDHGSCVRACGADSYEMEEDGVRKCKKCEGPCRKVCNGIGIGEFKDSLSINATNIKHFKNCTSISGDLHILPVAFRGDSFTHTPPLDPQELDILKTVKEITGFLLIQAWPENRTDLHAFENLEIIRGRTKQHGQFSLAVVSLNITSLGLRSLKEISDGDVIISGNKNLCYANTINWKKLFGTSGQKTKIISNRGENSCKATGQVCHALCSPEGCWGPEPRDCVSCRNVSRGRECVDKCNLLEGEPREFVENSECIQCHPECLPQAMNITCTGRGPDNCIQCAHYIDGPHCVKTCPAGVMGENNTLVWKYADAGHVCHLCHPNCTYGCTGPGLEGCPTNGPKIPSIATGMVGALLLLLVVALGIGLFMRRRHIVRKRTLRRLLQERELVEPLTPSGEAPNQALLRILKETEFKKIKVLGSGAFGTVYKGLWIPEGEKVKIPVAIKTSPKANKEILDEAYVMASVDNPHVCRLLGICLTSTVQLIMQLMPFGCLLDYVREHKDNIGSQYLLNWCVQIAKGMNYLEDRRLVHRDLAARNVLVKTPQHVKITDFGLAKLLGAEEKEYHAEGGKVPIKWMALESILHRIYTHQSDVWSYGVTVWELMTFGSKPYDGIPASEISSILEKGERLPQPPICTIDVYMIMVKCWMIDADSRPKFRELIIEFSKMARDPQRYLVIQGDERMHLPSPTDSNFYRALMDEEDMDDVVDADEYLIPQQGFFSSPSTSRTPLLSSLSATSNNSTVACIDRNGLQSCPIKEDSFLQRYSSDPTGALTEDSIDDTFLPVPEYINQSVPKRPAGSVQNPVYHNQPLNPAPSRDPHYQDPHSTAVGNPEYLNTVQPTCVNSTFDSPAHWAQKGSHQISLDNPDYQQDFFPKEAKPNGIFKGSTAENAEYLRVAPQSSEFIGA
(§7) Ba/F3 cells purchased from DSMZ were grown in RPMI+10% FBS+10 ng/mL IL-3 and infected with filtered retroviral supernatant at a 1:2 dilution. Polybrene was added to a concentration of 8 μg/mL, plates were spun for 90 min, and incubated for 16 h at 37° C. 2 μg/mL puromycin was added to the infected cells 24 h after infection and cells were continually grown in the presence of puromycin and 10 ng/mL IL-3. Following stably expressing Ba/F3 cell lines were generated: Ba/F3-EGFR-L858R, Ba/F3-EGFR-E746_A750del, Ba/F3-EGFR-L858R T790M, or Ba/F3-EGFR-E746_A750del T790M.
(§8) For cell survival assays, Ba/F3 cells were grown to a density of 1-2 million cells per mL, spun down and resuspended in media without IL-3, and replated at a concentration 200,000-500,000 cells per mL. The cells ectopically expressing EGFR-L858R, EGFR-E746_A750del, EGFR-L858R T790M, or EGFR-E746_A750del T790M were plated with 10 ng/mL Millipore Culture grade EGF. The cells ectopically expressing pBABEpuro empty vector were plated with 10 ng/mL IL-3.
as §4, §5

The next assay deals with Ba/F3-EGFR-insSVD cells (Homo sapiens, UniProt P00533, DUP768-770, cells depend on it). Nature of the assay: Ba/F3 cell survival assay (Cell Titer-Glo), EGFR-insSVD. In kind it is cell-based. Particulars: 48 h, without IL-3, 10 ng/mL EGF; read-out: BA/F3 (insSVD) IC50. As for the experimental part:
as §1, §2, §3, §4, §5

For assay [3], the target named is Ba/F3-EGFR-L858R T790M cells (Homo sapiens, UniProt P00533, T790M/L858R, cells depend on it). Nature of the assay: Ba/F3 cell survival assay (Cell Titer-Glo), EGFR-L858R T790M. Type of assay: cell-based. Particulars: 48 h, without IL-3, 10 ng/mL EGF; read-out: BA/F3 (L858R T790M) IC50. As for the experimental part:
as §6, §7, §8, §4, §5

Structures are written as SMILES.

Among the data in patent publication US20230416249A1, “N-[2-({4-[3-(ANILINO)-4-OXO-4,5,6,7-TETRAHYDRO-1H-PYRROLO[3,2-C]PYRIDIN-2-YL]PYRIDIN-3-YL)OXY)ETHYL]PROP-2-ENAMIDE DERIVATIVES AND SIMILAR COMPOUNDS AS EGFR INHIBITORS FOR THE TREATMENT OF CANCER” (Bayer Aktiengesellschaft, priority 2020, published 2023) are IC50 and GI50 values, retold here.

Chain of Ba/F3-EGFR-L858R T790M cells (P00533 whole entry T790M/L858R): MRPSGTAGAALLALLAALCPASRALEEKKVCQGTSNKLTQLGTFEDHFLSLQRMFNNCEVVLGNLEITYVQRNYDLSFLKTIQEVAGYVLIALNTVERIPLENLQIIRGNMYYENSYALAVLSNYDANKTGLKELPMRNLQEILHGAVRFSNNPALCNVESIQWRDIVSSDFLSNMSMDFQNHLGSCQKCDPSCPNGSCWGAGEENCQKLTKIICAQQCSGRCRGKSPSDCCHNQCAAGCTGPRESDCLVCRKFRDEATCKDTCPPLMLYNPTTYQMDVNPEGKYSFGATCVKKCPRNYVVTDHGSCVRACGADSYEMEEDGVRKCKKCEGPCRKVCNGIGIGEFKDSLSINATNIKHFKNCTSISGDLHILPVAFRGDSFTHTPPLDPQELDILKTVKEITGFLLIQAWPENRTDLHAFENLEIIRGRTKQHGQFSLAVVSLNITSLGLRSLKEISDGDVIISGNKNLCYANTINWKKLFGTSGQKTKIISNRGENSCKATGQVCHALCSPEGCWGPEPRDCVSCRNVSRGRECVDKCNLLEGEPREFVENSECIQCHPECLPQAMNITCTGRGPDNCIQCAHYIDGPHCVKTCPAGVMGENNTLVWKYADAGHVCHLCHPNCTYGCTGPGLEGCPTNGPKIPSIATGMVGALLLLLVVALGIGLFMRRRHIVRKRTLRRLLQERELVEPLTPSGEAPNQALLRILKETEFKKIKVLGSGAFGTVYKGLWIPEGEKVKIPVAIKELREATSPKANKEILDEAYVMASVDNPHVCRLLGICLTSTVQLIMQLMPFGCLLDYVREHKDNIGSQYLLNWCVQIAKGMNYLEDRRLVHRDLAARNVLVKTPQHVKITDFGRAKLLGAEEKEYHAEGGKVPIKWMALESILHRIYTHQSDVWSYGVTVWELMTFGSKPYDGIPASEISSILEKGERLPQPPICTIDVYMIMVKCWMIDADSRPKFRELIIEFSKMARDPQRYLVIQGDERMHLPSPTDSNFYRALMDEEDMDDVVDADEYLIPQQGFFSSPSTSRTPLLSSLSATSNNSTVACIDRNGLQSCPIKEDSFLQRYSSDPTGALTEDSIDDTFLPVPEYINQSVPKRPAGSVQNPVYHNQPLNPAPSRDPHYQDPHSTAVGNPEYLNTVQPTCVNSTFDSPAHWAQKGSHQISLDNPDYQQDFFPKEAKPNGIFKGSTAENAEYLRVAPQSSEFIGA
Chain of Ba/F3-EGFR-WT cells (P00533 whole entry, stated change not applied): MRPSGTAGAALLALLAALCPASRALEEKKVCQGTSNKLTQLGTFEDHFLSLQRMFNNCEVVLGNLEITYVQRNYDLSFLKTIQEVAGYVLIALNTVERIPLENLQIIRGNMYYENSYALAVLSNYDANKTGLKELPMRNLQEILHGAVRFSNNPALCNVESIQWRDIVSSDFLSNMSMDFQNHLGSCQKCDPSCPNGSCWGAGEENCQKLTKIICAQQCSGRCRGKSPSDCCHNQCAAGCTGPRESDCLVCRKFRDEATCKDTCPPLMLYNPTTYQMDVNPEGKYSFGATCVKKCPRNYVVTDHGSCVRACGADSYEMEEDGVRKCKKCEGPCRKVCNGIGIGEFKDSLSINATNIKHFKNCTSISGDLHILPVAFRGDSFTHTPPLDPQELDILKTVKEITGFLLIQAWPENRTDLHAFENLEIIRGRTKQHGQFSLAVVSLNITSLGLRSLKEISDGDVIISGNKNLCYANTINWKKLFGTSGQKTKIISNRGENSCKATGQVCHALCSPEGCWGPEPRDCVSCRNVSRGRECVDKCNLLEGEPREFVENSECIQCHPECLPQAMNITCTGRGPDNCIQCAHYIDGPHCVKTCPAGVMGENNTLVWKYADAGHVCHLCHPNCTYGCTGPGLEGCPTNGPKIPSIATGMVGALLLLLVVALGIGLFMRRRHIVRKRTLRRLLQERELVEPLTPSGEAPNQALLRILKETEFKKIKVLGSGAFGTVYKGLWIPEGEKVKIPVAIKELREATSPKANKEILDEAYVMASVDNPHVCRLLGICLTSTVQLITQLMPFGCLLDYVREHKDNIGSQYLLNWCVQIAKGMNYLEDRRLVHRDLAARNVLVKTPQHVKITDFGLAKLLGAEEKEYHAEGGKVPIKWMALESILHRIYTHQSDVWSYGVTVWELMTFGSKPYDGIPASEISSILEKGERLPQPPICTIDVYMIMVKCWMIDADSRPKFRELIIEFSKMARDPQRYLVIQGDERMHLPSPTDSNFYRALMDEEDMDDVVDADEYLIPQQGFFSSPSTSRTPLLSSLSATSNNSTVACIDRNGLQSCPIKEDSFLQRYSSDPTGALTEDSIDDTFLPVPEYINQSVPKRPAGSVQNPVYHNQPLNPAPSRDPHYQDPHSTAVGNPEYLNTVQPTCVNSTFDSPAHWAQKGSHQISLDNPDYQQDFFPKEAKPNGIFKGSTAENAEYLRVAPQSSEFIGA
Chain of Ba/F3-EGFR-insSVD cells (P00533 with tags, fused parts or gaps DUP768-770): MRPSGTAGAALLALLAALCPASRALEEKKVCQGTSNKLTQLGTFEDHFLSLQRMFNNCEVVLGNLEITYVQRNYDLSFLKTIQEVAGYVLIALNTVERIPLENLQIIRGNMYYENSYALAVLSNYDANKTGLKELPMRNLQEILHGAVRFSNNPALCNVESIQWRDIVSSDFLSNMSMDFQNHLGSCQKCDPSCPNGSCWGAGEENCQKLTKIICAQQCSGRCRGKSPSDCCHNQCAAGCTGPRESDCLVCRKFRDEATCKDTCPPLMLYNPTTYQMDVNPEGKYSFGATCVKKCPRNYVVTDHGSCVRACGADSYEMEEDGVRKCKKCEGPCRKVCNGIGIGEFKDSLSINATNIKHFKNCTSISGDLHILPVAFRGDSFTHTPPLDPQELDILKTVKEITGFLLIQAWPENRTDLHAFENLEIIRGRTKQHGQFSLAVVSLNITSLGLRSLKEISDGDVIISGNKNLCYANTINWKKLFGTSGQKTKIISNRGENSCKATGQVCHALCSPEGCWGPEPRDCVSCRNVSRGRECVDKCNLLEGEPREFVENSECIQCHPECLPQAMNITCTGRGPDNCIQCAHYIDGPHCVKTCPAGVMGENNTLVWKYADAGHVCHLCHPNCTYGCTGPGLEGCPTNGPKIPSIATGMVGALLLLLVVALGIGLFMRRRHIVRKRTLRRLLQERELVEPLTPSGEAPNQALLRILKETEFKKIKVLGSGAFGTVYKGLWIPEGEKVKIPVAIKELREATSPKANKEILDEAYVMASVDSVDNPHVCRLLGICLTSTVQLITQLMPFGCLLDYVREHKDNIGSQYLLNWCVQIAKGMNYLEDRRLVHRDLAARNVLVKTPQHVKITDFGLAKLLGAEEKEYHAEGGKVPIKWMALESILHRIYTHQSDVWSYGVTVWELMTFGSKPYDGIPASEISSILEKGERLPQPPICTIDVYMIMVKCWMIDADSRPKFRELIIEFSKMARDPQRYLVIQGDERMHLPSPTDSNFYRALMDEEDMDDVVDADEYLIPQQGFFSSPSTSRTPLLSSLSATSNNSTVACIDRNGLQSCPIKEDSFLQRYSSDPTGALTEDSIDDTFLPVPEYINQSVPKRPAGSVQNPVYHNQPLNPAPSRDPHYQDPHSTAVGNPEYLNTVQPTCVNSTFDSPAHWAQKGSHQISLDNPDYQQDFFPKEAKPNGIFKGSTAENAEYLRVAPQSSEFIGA

On to `C=CC(=O)N(C)CCOc1cnccc1-c1[nH]c2c(c1Nc1cccc(Cl)c1OC)C(=O)NC1(CCC1)C2` [Example 11, N-[2-({4-[3′-(3-chloro-2-methoxyanilino)-4′-oxo-1′,4′,5′,7′-tetrahydrospiro[cyclobutane-1,6′-pyrrolo[3,2-c]pyridin]-2′-yl]pyridin-3-yl}oxy)ethyl]-N-methylprop-2-enamide], for which, in assay [1], the half-maximal inhibitory concentration (IC50) (usually the point on the concentration scale where inhibition reaches its midpoint) amounted to 0.464 nM. For the same molecule, the GI50 on Ba/F3-EGFR-WT cells came to 309 nM; in assay [2] it was 25.8 nM; at Ba/F3-EGFR-insSVD cells, 12.2 nM; in assay [3], 198 nM.
In the same order, the values of `C=CC(=O)NCCOc1cnccc1-c1[nH]c2c(c1Nc1cccc(Cl)c1OC)C(=O)NCC2` [Example 1, N-[2-({4-[3-(3-chloro-2-methoxyanilino)-4-oxo-4,5,6,7-tetrahydro-1H-pyrrolo[3,2-c]pyridin-2-yl]pyridin-3-yl}oxy)ethyl]prop-2-enamide] are 0.155 nM, 3030 nM, over 1000 nM, 376 nM and over 1000 nM.
On the same counts, the results for `C=CC(=O)N(C)CCOc1cnccc1-c1[nH]c2c(c1Nc1ccccc1OC(F)F)C(=O)NCC2` [Example 14, N-(2-{[4-(3-{[2-(difluoromethoxy)phenyl]amino}-4-oxo-4,5,6,7-tetrahydro-1H-pyrrolo[3,2-c]pyridin-2-yl)pyridin-3-yl]oxy}ethyl)-N-methylprop-2-enamide] are 0.571 nM, 652 nM, 29.1 nM, 35.4 nM and 397 nM.
On the same counts, the results for `C=CC(=O)NCCOc1cnccc1-c1[nH]c2c(c1Nc1cccc(F)c1C)C(=O)NCC2` [Example 2, N-[2-({4-[3-(3-fluoro-2-methylanilino)-4-oxo-4,5,6,7-tetrahydro-1H-pyrrolo[3,2-c]pyridin-2-yl]pyridin-3-yl}oxy)ethyl]prop-2-enamide] are 0.386 nM, 907 nM, 25.2 nM, 57.9 nM and 215 nM.
For `C=CC(=O)N(C)CCOc1cnccc1-c1[nH]c2c(c1Nc1cccc(Cl)c1OC)C(=O)NCC2` [Example 5, N-[2-({4-[3-(3-chloro-2-methoxyanilino)-4-oxo-4,5,6,7-tetrahydro-1H-pyrrolo[3,2-c]pyridin-2-yl]pyridin-3-yl}oxy)ethyl]-N-methylprop-2-enamide], the half-maximal inhibitory concentration (IC50) in assay [1] worked out at 0.231 nM. In addition, the GI50 at Ba/F3-EGFR-WT cells was 68 nM; in assay [2] it was 3.39 nM; at Ba/F3-EGFR-insSVD cells, 5.77 nM; in assay [3], 12.9 nM.
Consider `C=CC(=O)NCCCOc1cnccc1-c1[nH]c2c(c1Nc1cccc(Cl)c1OC)C(=O)NCC2` [Example 4, N-[3-({4-[3-(3-chloro-2-methoxyanilino)-4-oxo-4,5,6,7-tetrahydro-1H-pyrrolo[3,2-c]pyridin-2-yl]pyridin-3-yl}oxy)propyl]prop-2-enamide], for which the half-maximal inhibitory concentration (IC50) in assay [1] was 0.305 nM. Further, the GI50 on Ba/F3-EGFR-WT cells is 4420 nM; in assay [2], over 1000 nM; on Ba/F3-EGFR-insSVD cells, 519 nM; in assay [3] it was over 1000 nM.
